The values below come from US20250049829A1, “NOVEL T[…] TARGETING THE H-RAS ISOFORM WITH G12D MUTATION INVOLVED IN CANCER FORMATION” (ISTANBUL MEDIPOL UNIVERSITESI, priority 2021, published 2025).

In the test the target is T1, interaction of H-RASG12D with RAF (Homo sapiens, UniProt P01112, G12D).
T1 construct: expressed in transfected cells; host or cells: HEK-293T
Briefly: Active RAS pull-down (GST-Raf-RBD) and western blot in HRASG12D-overexpressing HEK-293T cells. The class given is cell-based. As to conditions: for active RAS levels: 293T-HRASG12D cells, pull-down with RAF, western blot. The protocol: The candidate molecules determined as a result of molecular dynamics studies were applied to HEK-293T cells at different concentrations in order to determine the cytotoxic and optimum doses for the cells. Optimum dose ranges were determined for each molecule. HEK-293T/HRASG12D cells were treated with Cerubidine […], one of these candidate molecules, and active RAS was examined due to the interaction of RAS protein in cells with RAF. In experiments carried out on this molecule; lysate was collected at different time points from cells treated with non-toxic concentrations of Cerubidine. Active RAS precipitation (Pull Down) and subsequent Western-blot experiments performed on these lysates were used to investigate the effect of Cerubidine molecule on active RAS at different time points for 12 hours in terms of G12D mutation specificity.
In the said study, HEK-293T cells with high expression of RAS proteins carrying the G12D mutation were used to examine the effect of candidate ligands on the interaction of H-RASG12D with RAF. First of all, an “Active Ras Pull-Down and Detection Kit (Thermo)” was provided to detect the interaction of the active RAS protein with RAF, and therefore the active RAS proteins involved in this interaction. Since the working principle of the kit is based on the precipitation of RAS proteins interacting with RAF, immunoprecipitation experiments were performed accordingly, since the use of the kit within the scope of this experiment was suitable for the target.
The isolated proteins were first treated with GTPyS and GDP, and then bound to the glutathione-containing column with GST-Raf-RBD. Then, the presence of the RAS protein was examined by western blot experiment in the samples collected by elution from the column.
Then, established 293T-HRAS^G12D cells were treated with Cerubudine, one of the candidate molecules, at different doses (non-cytotoxic), and active RAS proteins were precipitated in the presence of RAF in the lysates collected from cells, following the kit protocol validated in FIG. 5. Then, active RAS, HRAS and RAS^G12D levels were analyzed by western blot at different time points.
Here, HRASG12D overexpressed cell lines (HEK-293T/HRAS^G12D) were treated with increasing doses of Cerubudine and lysate was obtained for protein isolation at different time points (0.5 h, 1 h, 3 h, 12 h). Active RAS precipitation was performed using isolated proteins and RAS, RASG12D and HRAS protein levels were examined by Western blot. Within the scope of the results obtained, there was a decrease in active RAS protein levels depending on the dose increase, especially in the 12th hour treated samples. Cerubidine treatment in cell lines overexpressing HRASG12D reduced the interaction of active RAS protein with RAF.
A general note: In western blotting, separated proteins are transferred to a membrane and probed.

As for `COc1cccc2c1C(=O)c1c(O)c3c(c(O)c1C2=O)C[C@@](O)(C(C)=O)C[C@@H]3O[C@H]1C[C@H](N)[C@H](O)[C@H](C)O1` [Cerubidine, cerubidine], the “reduction in G12D mutant HRAS versus wild type HRAS levels” value (5 μM and 10 μM, western blot for active RAS, HRAS and RASG12D) was “not wild type HRAS levels”. Moreover, the “active RAS levels” value is, setting by setting: (5 μM) “significant decrease”; (10 μM) “significant decrease”. Besides, the “effect on active RAS levels, dose and time of strongest effect” value (10 μM, at the end of 12 hours) was “most pronounced effect”. In addition, the “interaction of active RAS protein with RAF” value (cell lines overexpressing HRASG12D) was “reduced”. Further, the “active RAS protein levels depending on the dose increase” value (increasing doses, 12th hour treated samples, HEK-293T/HRASG12D) is “decrease”. Further, the “mutant specificity of decrease in active RAS levels (G12D specific antibody)” value (membrane with G12D specific antibody) is reported as “mutant specific”.
